35 compounds from patent publication US8735406B2, “8-oxodihydropurine derivative” (Dainippon Sumitomo Pharma Co., Ltd., priority 2009, dated 2014) can be followed below.

Each structure is given as a SMILES string. Where a name gives a salt, the structure may show the parent alone.

This test concerns the target T1, FAAH (Rattus norvegicus, UniProt P97612).
T1 construct: Preparation of Rat Brain Membranes Preparations (FAAH Enzyme Solution); from tissue; host or cells: rat cerebrum (brain membrane preparation)
T1 sequence (P97612 1-579): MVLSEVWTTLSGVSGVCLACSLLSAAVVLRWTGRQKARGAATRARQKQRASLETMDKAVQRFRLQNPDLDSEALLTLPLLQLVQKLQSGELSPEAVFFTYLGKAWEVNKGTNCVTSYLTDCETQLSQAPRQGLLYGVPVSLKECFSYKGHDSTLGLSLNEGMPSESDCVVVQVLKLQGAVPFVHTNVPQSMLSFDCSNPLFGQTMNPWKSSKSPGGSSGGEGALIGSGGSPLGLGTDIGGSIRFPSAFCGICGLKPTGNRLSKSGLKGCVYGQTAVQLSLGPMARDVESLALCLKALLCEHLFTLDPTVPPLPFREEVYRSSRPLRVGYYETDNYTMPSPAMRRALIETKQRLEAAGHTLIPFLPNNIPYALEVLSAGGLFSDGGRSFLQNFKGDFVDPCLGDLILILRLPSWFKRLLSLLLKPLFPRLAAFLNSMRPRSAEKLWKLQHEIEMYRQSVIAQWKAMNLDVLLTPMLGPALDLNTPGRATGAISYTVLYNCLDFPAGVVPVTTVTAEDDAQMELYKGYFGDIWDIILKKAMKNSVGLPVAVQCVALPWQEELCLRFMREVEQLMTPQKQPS
As to the kind of experiment: Determination of FAAH inhibitory activity in rat (rat brain membrane preparations, [3H]-anandamide hydrolysis). In kind it is biochemical. The conditions noted are these: rat brain membrane preparations; for inhibition at 0.1 µM: 100 nM test substance, read-out: FAAH Inhibition, Inhibition Rate at 100 nM; for IC50: test substance 0.1 nM to 1 μM, read-out: FAAH Inhibition IC50. The method, boiled down:
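Compounds tested from 0.1 nM to 1 μM to derive IC50 against FAAH hydrolysis in rat brain membrane preparations (100 μg/mL). A 10-min 37 °C preincubation was followed by 10 min with [3H]-anandamide (2 nM) mixed with 2 μM unlabelled anandamide. Radioactive ethanolamine was extracted into the water/methanol layer and counted.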

As for `COCCc1ncc2c(n1)n(C)c(=O)n2C(=O)N1CC(c2ccc(C(F)(F)F)cc2)C1` [Example 388, 2-(2-methoxyethyl)-9-methyl-7-({3-[4-(trifluoromethyl)phenyl]azetidin-1-yl}carbonyl)-7,9-dihydro-8H-purine-8-one hydrochloric acid salt], the inhibition at 0.1 µM worked out at 100% and the IC50 turned out to be 0.005 µM.

As for `CN(C)C(=O)n1c(=O)n(C)c2cnc(CCCOc3ccc(C(F)(F)F)cc3)nc21` [Example 394, N,N,7-trimethyl-8-oxo-2-{3-[4-(trifluoromethyl)phenoxy]propyl}-7,8-dihydro-9H-purine-9-carboxamide hydrochloric acid salt], the inhibition at 0.1 µM was 94% and the IC50 worked out at 0.007 µM.

Turning to `CN(C)C(=O)n1c(=O)n(C)c2cnc(CCCOc3cccc(F)c3)nc21` [Example 395], the inhibition at 0.1 µM came out at 78% and the IC50 worked out at 0.032 µM.

For `Cc1ccc(OCCCc2ncc3c(n2)n(C(=O)N(C)C)c(=O)n3C)cc1` [Example 396], the inhibition at 0.1 µM was 52% and the IC50 amounted to 0.078 µM.

Take `Cc1cccc(OCCCc2ncc3c(n2)n(C(=O)N(C)C)c(=O)n3C)c1` [Example 397]: the inhibition at 0.1 µM came out at 76% and the IC50 amounted to 0.032 µM.

For `CN(C)C(=O)n1c(=O)n(C)c2cnc(CCCOc3ccc(F)cc3)nc21` [Example 398], the inhibition at 0.1 µM was found to be 84% and the IC50 was found to be 0.009 µM.

In the case of `CN(C)C(=O)n1c(=O)n(C)c2cnc(CCCOc3cccc(C(F)(F)F)c3)nc21` [Example 399], the inhibition at 0.1 µM came out at 95% and the IC50 came to 0.006 µM.

For `Cn1c(=O)n(C(=O)N2CCC2)c2nc(CCCOc3ccccc3)ncc21` [Example 400], the inhibition at 0.1 µM came out at 88% and the IC50 amounted to 0.098 µM.

As for `Cn1c(=O)n(C(=O)N2CCC2)c2nc(CCCOc3ccc(F)cc3)ncc21` [Example 401, 9-(Azetidin-1-ylcarbonyl)-2-[3-(4-fluorophenoxy)propyl]-7-methyl-7,9-dihydro-8H-purine-8-one], the inhibition at 0.1 µM was determined as 99% and the IC50 turned out to be 0.009 µM.

Consider `Cn1c(=O)n(C(=O)N2CCC2)c2cnc(COc3ccc(F)cc3)nc21` [Example 402, 7-(azetidin-1-ylcarbonyl)-2-[(4-fluorophenoxy)methyl]-9-methyl-7,9-dihydro-8H-purine-8-one], for which the inhibition at 0.1 µM was determined as 103% and the IC50 turned out to be 0.01 µM.

In the case of `COc1cccc(OCc2ncc3c(n2)n(C)c(=O)n3C(=O)N2CCC2)c1` [Example 404, 7-(Azetidin-1-ylcarbonyl)-2-[(3-methoxyphenoxy)methyl]-9-methyl-7,9-dihydro-8H-purine-8-one], the inhibition at 0.1 µM amounted to 96% and the concentration for half-maximal inhibition (IC50) was found to be 0.01 µM.

`CCc1cccc(OCc2ncc3c(n2)n(C(=O)N(C)C)c(=O)n3C)c1` [Example 413]: the inhibition at 0.1 µM stood at 98% and the IC50 came out at 0.003 µM.

On to `CN(C)C(=O)n1c(=O)n(C)c2cnc(COc3cccc(Cl)c3)nc21` [Example 414], for which the inhibition at 0.1 µM came out at 84% and the IC50 came to 0.064 µM.

Regarding `Cn1c(=O)n(C(=O)N2CCC2)c2nc(COc3ccccc3)ncc21` [Example 415], the inhibition at 0.1 µM amounted to 41% and the 50% inhibitory concentration (IC50) was 0.148 µM.

Regarding `Cc1ccccc1OCc1ncc2c(n1)n(C(=O)N1CCC1)c(=O)n2C` [Example 416], the inhibition at 0.1 µM came out at 50% and the IC50 worked out at 0.112 µM.

`Cc1cccc(OCc2ncc3c(n2)n(C(=O)N2CCC2)c(=O)n3C)c1` [Example 417]: the inhibition at 0.1 µM was determined as 66% and the IC50 is 0.033 µM.

Consider `CCc1cccc(OCc2ncc3c(n2)n(C(=O)N2CCC2)c(=O)n3C)c1` [Example 418], for which the inhibition at 0.1 µM came out at 75% and the IC50 was 0.035 µM.

On to `Cn1c(=O)n(C(=O)N2CCC2)c2nc(COc3cccc(Cl)c3)ncc21` [Example 419], for which the inhibition at 0.1 µM is 81% and the IC50 was 0.031 µM.

For `Cn1c(=O)n(C(=O)N2CCC2)c2nc(COc3cccc(F)c3)ncc21` [Example 420], the inhibition at 0.1 µM turned out to be 60% and the half-maximal inhibitory concentration (IC50) was determined as 0.065 µM.

On to `CN(C)C(=O)n1c(=O)n(C)c2cnc(COc3ccccc3Cl)nc21` [Example 421], for which the inhibition at 0.1 µM was 85% and the IC50 worked out at 0.095 µM.

On to `CN(C)C(=O)n1c(=O)n(C)c2cnc(COc3cccc(C(F)(F)F)c3)nc21` [Example 422], for which the inhibition at 0.1 µM was found to be 88% and the IC50 was 0.022 µM.

On to `CN(C)C(=O)n1c(=O)n(C)c2cnc(COc3cccc(OC(F)(F)F)c3)nc21` [Example 423], for which the inhibition at 0.1 µM amounted to 112% and the concentration for half-maximal inhibition (IC50) came out at 0.003 µM.

For the compound `Cc1ccc(OCc2ncc3c(n2)n(C(=O)N2CCC2)c(=O)n3C)cc1` [Example 424], the inhibition at 0.1 µM was 80% and the IC50 worked out at 0.026 µM.

Take `Cn1c(=O)n(C(=O)N2CCC2)c2nc(COc3ccccc3F)ncc21` [Example 425]: the inhibition at 0.1 µM turned out to be 79% and the IC50 came out at 0.012 µM.

For `Cn1c(=O)n(C(=O)N2CCC2)c2nc(COc3ccc(F)cc3)ncc21` [Example 426], the inhibition at 0.1 µM came out at 84% and the IC50 was 0.009 µM.

As to `Cn1c(=O)n(C(=O)N2CCC2)c2nc(COc3ccccc3Cl)ncc21` [Example 427], the inhibition at 0.1 µM is 92% and the IC50 stood at 0.019 µM.

As for `Cn1c(=O)n(C(=O)N2CCC2)c2nc(COc3ccc(Cl)cc3)ncc21` [Example 428], the inhibition at 0.1 µM is 123% and the IC50 turned out to be 0.01 µM.

As for `CN(C)C(=O)n1c(=O)n(C)c2cnc(COc3ccccc3C(F)(F)F)nc21` [Example 429], the inhibition at 0.1 µM turned out to be 84% and the IC50 is 0.023 µM.

As for `CN(C)C(=O)n1c(=O)n(C)c2cnc(COc3ccccc3OC(F)(F)F)nc21` [Example 430], the inhibition at 0.1 µM came to 80% and the IC50 came out at 0.024 µM.

As for `CN(C)C(=O)n1c(=O)n(C)c2cnc(COc3cccc(OC(F)F)c3)nc21` [Example 431], the inhibition at 0.1 µM was determined as 60% and the IC50 was 0.094 µM.

Take `Cn1c(=O)n(C(=O)N2CCC2)c2nc(COc3ccc(C(F)(F)F)cc3)ncc21` [Example 434]: the inhibition at 0.1 µM amounted to 95% and the IC50 was 0.008 µM.

For the compound `Cn1c(=O)n(C(=O)N2CCC2)c2nc(COc3ccccc3OC(F)(F)F)ncc21` [Example 435], the inhibition at 0.1 µM was 94% and the IC50 was determined as 0.012 µM.

Consider `Cn1c(=O)n(C(=O)N2CCC2)c2cnc(COc3cccc(OC(F)F)c3)nc21` [Example 437], for which the inhibition at 0.1 µM worked out at 96% and the IC50 stood at 0.011 µM.

On to `COCc1ncc2c(n1)n(C)c(=O)n2C(=O)N1CC(c2ccccc2)C1` [Example 438, 2-(methoxymethyl)-9-methyl-7-[(3-phenylazetidin-1-yl)carbonyl]-7,9-dihydro-8H-purine-8-one], for which the inhibition at 0.1 µM amounted to 86% and the IC50 turned out to be 0.034 µM.

With `COCc1ncc2c(n1)n(C)c(=O)n2C(=O)N1CC(c2ccc(F)cc2)C1` [Example 439, 7-{[3-(4-Fluorophenyl)azetidin-1-yl]carbonyl}-2-(methoxymethyl)-9-methyl-7,9-dihydro-8H-purine-8-one], the inhibition at 0.1 µM was determined as 104% and the IC50 turned out to be 0.005 µM.
